Assay results reported in ChEMBL document CHEMBL2384990, “New Promising Compounds with in Vitro Nanomolar Activity against Trypanosoma cruzi” (ACS Med Chem Lett, 2013).
Calls of active or inactive are those of the source. No cut-off for these calls is given here.

Tests used:
Leishmania donovani = experiment: […] activity against Leishmania donovani MHOM-ET-67/L82 amastigotes after 72 hrs by Alamar blue assay; assay type: functional, organism-based; conditions: MHOM-ET-67/L82, 72 h
L6 = experiment: Cytotoxicity against rat L6 cells after 72 hrs by Alamar blue assay; assay type: cell-based; conditions: L6, 72 h
[1] = Selectivity index, ratio of IC50 for rat L6 cells to IC50 for Trypanosoma cruzi Tulahuen C2C4 amastigotes infected in rat L6 cells; assay type: toxicity, cell-based; conditions: read-out: Ratio IC50
Trypanosoma cruzi [2] = experiment: Antitrypanosomal activity against Trypanosoma cruzi Tulahuen C2C4 amastigotes infected in rat L6 cells after 96 hrs by photometric analysis; assay type: functional, organism-based; conditions: Tulahuen C2C4, L6, 96 h
Trypanosoma cruzi [3] = experiment: Ratio of Benznidazole IC50 to compound IC50 for Trypanosoma cruzi Tulahuen C2C4 amastigotes infected in rat L6 cells; assay type: functional
[4] = target: Sterol 14-alpha demethylase (Trypanosoma cruzi (strain CL Brener)) (UniProt Q7Z1V1); experiment: Inhibition of Trypanosoma cruzi CYP51
Plasmodium falciparum = experiment: Antiplasmodial activity against erythrocytic stage of Plasmodium falciparum K1 after 48 hrs by [3H]-hypoxanthine incorporation assay; assay type: functional, organism-based
[5] = test system: Trypanosoma brucei rhodesiense; experiment: Antitrypanosomal activity against Trypanosoma brucei rhodesiense STIB 900 trypomastigotes after 72 hrs by Alamar blue assay; assay type: functional, organism-based; conditions: STIB 900, 72 h
[6] = Metabolic stability in human liver microsomes assessed as CYP-dependent metabolism after 60 mins by LC-UV-MS analysis; assay type: ADME, Microsome; conditions: 1 h

Chain of Sterol 14-alpha demethylase (Trypanosoma cruzi (strain CL Brener)) (Q7Z1V1 whole entry, looked up): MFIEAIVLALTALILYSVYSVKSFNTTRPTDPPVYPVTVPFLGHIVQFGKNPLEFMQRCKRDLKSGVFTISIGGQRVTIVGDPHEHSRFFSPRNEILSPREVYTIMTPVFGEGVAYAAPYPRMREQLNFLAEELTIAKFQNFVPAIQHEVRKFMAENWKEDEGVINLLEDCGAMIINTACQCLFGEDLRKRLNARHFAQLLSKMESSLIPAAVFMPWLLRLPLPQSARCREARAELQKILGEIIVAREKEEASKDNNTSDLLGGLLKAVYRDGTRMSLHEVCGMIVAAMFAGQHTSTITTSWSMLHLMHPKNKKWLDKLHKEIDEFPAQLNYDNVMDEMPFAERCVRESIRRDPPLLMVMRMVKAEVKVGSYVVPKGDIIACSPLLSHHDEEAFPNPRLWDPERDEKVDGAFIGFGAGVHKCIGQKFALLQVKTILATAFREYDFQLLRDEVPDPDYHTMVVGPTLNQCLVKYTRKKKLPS

Row | SMILES | IC50 (Leishmania donovani) | IC50 (L6) | selectivity ratio [1] | IC50 (Trypanosoma cruzi [2]) | Ratio IC50 (Trypanosoma cruzi [3]) | inhibition [4] | IC50 (Plasmodium falciparum) | IC50 [5] | Stability [6]
1 | CCCCCCCCCCCCCCCCOP(=O)([O-])OCC[N+](C)(C)C [MILTEFOSINE] | 0.366 µM | – | – | – | – | – | – | – | –
2 | COc1cc([C@@H]2c3cc4c(cc3[C@H](O)[C@H]3COC(=O)[C@H]23)OCO4)cc(OC)c1OC [PODOFILOX] | – | 0.001 µM | – | – | – | – | – | – | –
3 | O=C(Nc1cc(Cl)nc(Cl)c1)O[C@@H](Cn1ccnc1)c1ccc(Cl)cc1 | – | 15.4 µM | 158 | 0.0972 µM | – | – | – | – | –
4 | O=C(Nc1cc(Cl)nc(Cl)c1)O[C@H](Cn1ccnc1)c1ccc(Cl)cc1 | – | 31.6 µM | 1340 | 0.0236 µM | <=1000 | – | – | – | –
5 | O=C(Nc1ccnc(Cl)c1)OCCN1CCOCC1 | 190 µM | 238 µM | 1.3 | 175 µM | – | inactive | 79.8 µM | 230 µM | –
6 | O=C(COc1ccccc1)OC(Cn1ccnc1)c1ccc(F)cc1 (racemic) | 17.3 µM | 182 µM | 7.5 | 24.4 µM | – | – | 36.7 µM | 294 µM | –
7 | O=C(Cn1ccnc1[N+](=O)[O-])NCc1ccccc1 [BENZNIDAZOLE] | – | – | – | 1.67 µM | – | – | – | – | –
8 | CC(C)c1ccc(NC(=O)OC(Cn2ccnc2)c2ccc(F)cc2)cc1 (racemic) | 15 µM | 16.8 µM | 3360 | 0.005 µM | – | – | 4.6 µM | 19.1 µM | –
9 | O=C(O[C@@H](Cn1ccnc1)c1ccccc1)c1ccc(-c2ccccc2)cc1 | – | 27.5 µM | 143 | 0.193 µM | – | – | – | – | –
10 | O=C(O[C@H](Cn1ccnc1)c1ccccc1)c1ccc(-c2ccccc2)cc1 | – | 18.2 µM | 4800 | 0.0038 µM | <=1000 | – | – | – | Unstable
11 | CC(C)c1ccc(NC(=O)O[C@H](Cn2ccnc2)c2ccc(Cl)cc2)cc1 | – | 13.4 µM | 7470 | 0.0018 µM | <=1000 | – | – | – | Unstable
12 | CC(C)c1ccc(NC(=O)OC(Cn2ccnc2)c2ccc(Cl)cc2)cc1 (racemic) | 7 µM | 13 µM | 2490 | 0.005 µM | – | – | 1.8 µM | 18.2 µM | –
13 | O=C(Nc1cc(Cl)nc(Cl)c1)OC(Cn1ccnc1)c1ccc(Cl)cc1 (racemic) | 11.4 µM | 27.2 µM | 749 | 0.036 µM | – | – | 1.5 µM | 34 µM | –
14 | CC(C)c1ccc(NC(=O)O[C@@H](Cn2ccnc2)c2ccc(Cl)cc2)cc1 | – | 14 µM | 125 | 0.112 µM | – | – | – | – | –
15 | Cc1ncc([N+](=O)[O-])n1CCOC(=O)Nc1ccncc1Br | 85.1 µM | 222 µM | 4.6 | 48.4 µM | – | inactive | 60.2 µM | 139 µM | –
16 | O=C(Nc1cc(Cl)nc(Cl)c1)OCCN1CCOCC1 | 123 µM | 79.3 µM | 0.6 | 133 µM | – | inactive | 23.1 µM | 117 µM | –
17 | O=C(OC(Cn1ccnc1)c1ccccc1)c1ccc(-c2ccccc2)cc1 (racemic) | 5.4 µM | 23.6 µM | 1580 | 0.014 µM | – | – | 2.2 µM | 42.1 µM | –
